SMILES strings stand for the structures.

What is called IC50 is the concentration at which inhibition is half-maximal.

The experiment concerns the target T1, Orexin receptor type 2 (Homo sapiens, UniProt O43614).
T1 sequence (O43614 whole entry): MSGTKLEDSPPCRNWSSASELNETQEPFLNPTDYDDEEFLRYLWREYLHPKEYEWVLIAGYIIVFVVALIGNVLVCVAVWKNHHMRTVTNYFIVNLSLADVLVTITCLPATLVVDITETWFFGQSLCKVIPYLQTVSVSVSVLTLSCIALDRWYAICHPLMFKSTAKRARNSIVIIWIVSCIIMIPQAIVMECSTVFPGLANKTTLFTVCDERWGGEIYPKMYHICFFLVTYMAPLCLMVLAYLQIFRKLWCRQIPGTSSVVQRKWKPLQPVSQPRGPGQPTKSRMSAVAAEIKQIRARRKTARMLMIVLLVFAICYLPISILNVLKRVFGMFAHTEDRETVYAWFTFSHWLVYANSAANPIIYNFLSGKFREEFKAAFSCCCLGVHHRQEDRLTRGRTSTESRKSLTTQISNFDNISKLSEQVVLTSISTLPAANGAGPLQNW
Description: FLIPR Assay: In a typical experiment the OX1 and OX2 receptor antagonistic activity of the compounds of the present invention was determined in accordance with the following experimental method. For intracellular calcium measurements, Chinese hamster ovary (CHO) cells expressing the rat orexin-1 receptor or the human orexin-2 receptor, are grown in Iscove's modified DMEM containing 2 mM L-glutamine, […], 1% hypoxanthine-thymidine supplement, 100 U/ml penicillin, 100 μg/ml streptomycin and 10% heat-inactivated fetal calf serum (FCS). The cells are seeded at 20,000 cells/well into Becton-Dickinson black 384-well clear bottom sterile plates coated with poly-D-lysine. All reagents are from GIBCO-Invitrogen Corp. The seeded plates are incubated overnight at 37° C. and 5% CO2. Ala-6,12 human orexin-A as the agonist is prepared as a 1 mM stock solution in 1% bovine serum albumin (BSA) and diluted in assay buffer (HBSS containing 20 mM HEPES, 0.1% BSA and 2.5 mM probenecid, pH7.4) for use in the assay at a final concentration of 70 pM. Test compounds are prepared as 10 mM stock solution in DMSO, then diluted in 384-well plates, first in DMSO, then assay buffer. On the day of the assay, cells are washed 3 times with 100 μl assay buffer and then incubated for 60 min (37° C., 5% CO2) in 60 μl assay buffer containing […] Fluo-4AM ester, 0.02% pluronic acid, and 1% BSA. It is filed as cell-based. (In general: Calcium assays in cells follow changes in intracellular calcium, usually with a dye or a luminescent sensor.)

Consider `C[C@@H]1CC[C@@H](Sc2nccn3nccc23)CN1C(=O)c1ccccc1-n1nccn1`, for which the IC50 turned out to be 15.7 nM.

The record behind these values is ChEMBL document CHEMBL5727479, “Fused heteroaryl derivatives as orexin receptor antagonists” (2020).
